Literature values, collected in patent US20250288540A1, “METHODS AND COMPOSITIONS FOR PAIN MANAGEMENT” (SILO PHARMA, INC., priority 2024, published 2025).

How the values were obtained:
[1] = tested on: N-methyl-D-aspartate (NMDA) receptor
[2] = tested on: halothane requirements (MAC); conditions: rat

SMILES: NC1(c2ccccc2Cl)CCCCC1=O (centres unmarked) [Norketamine]
- affinity at the NMDA receptor compared with ketamine [1]: less affinity
- activity relative to ketamine in reducing halothane requirements (MAC) [2]: about ⅓

SMILES: CNC1(c2ccccc2Cl)CCCCC1=O.Cl (centres unmarked) [Ketamine hydrochloride, 2-(2-chlorophenyl)-2-(methylamino) cyclohexan-1-one hydrochloride]
- solubility in ethanol (ethanol): ~750 mg/mL
- solubility in ether (ether): practically insoluble
- solubility in methanol (methanol): freely soluble
